What follows are compounds tested against T1, human MDM2 (GST-hMDM2 1-188), interaction with biotinylated-p53 (1-83) (Homo sapiens, UniProt Q00987) (assay: improved HTRF assay (HTRF2 assay), inhibition of HDM2-p53 interaction). Conditions: 0.2 nM GST-hMDM2, 0.5 nM biotinylated-p53, 100 mM KF.
T1 construct: Amino acid residues 1-188 of human MDM2 were expressed; made in house; host or cells: Escherichia coli
T1 sequence (Q00987 1-188): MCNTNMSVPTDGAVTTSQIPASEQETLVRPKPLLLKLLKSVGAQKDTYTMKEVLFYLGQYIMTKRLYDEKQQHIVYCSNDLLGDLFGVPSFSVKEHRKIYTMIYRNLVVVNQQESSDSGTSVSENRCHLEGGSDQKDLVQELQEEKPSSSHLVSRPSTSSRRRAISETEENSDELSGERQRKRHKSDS
Format: binding
Summary of the method: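 GST-hMDM2 preincubated 20 min at RT with serially diluted compound, then biotinylated p53 (1-83, E. coli) added for 60 min. Detection with SA-XLent, anti-GST cryptate and KF, equilibrated >4 h; final DMSO 2%. TR-FRET read; % inhibition calculated relative to nutlin-3.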
CC(C)(C)S(=O)(=O)C[C@H](C1CC1)N1C(=O)[C@@H](CC(=O)NCC(F)(F)F)O[C@H](c2cccc(Cl)c2)[C@H]1c1ccc(Cl)cc1 (single isomer, unassigned) [Example 346, 2-((2R,5R,6R)-4-((S)-2-(tert-Butylsulfonyl)-1-cyclopropylethyl)-6-(3-chlorophenyl)-5-(4-chlorophenyl)-3-oxomorpholin-2-yl)-N-(2,2,2-trifluoroethyl)acetamide or 2-((2S,5R,6R)-4-((S)-2-(tert-butylsulfonyl)-1-cyclopropylethyl)-6-(3-chlorophenyl)-5-(4-chlorophenyl)-3-oxomorpholin-2-yl)-N-(2,2,2-trifluoroethyl)acetamide] was tested, and the IC50 was 21 nM.
Work on CC[C@@H](CS(=O)(=O)c1ccccn1)N1C(=O)[C@@H](CC(=O)O)O[C@H](c2cccc(Cl)c2)[C@H]1c1ccc(Cl)cc1 (single isomer, unassigned) [Example 202, 2-((2R,5R,6R)-6-(3-chlorophenyl)-5-(4-chlorophenyl)-3-oxo-4-((S)-1-(pyridin-2-ylsulfonyl)butan-2-yl)morpholin-2-yl)acetic acid or 2-((2S,5R,6R)-6-(3-chlorophenyl)-5-(4-chlorophenyl)-3-oxo-4-((S)-1-(pyridin-2-ylsulfonyl)butan-2-yl)morpholin-2-yl)acetic acid] yielded an IC50 of 4 nM.
In the case of CC[C@@H](CS(=O)(=O)[C@H](C)C(C)C)N1C(=O)[C@H](CC(=O)O)O[C@H](c2cccc(Cl)c2)[C@H]1c1ccc(Cl)cc1 (single isomer, unassigned) [Example 285], the IC50 is reported as 9 nM.
CC[C@@H](CN(c1ccccc1Cl)S(=O)(=O)C1CC1)N1C(=O)[C@@H](CC(=O)O)O[C@H](c2cccc(Cl)c2)[C@H]1c1ccc(Cl)cc1 (single isomer, unassigned) [Example 265, 2-((2R,5R,6R)-6-(3-chlorophenyl)-5-(4-chlorophenyl)-4-((S)-1-(N-(2-chlorophenyl)cyclopropanesulfonamido)butan-2-yl)-3-oxomorpholin-2-yl)acetic acid or 2-((2S,5R,6R)-6-(3-chlorophenyl)-5-(4-chlorophenyl)-4-((S)-1-(N-(2-chlorophenyl)cyclopropanesulfonamido)butan-2-yl)-3-oxomorpholin-2-yl)acetic acid] gave an IC50 of 1 nM.
For NS(=O)(=O)C[C@H]1O[C@H](c2cccc(Cl)c2)[C@@H](c2ccc(Cl)cc2)N([C@H](CN(c2ccccc2F)S(=O)(=O)C2CC2)C2CC2)C1=O (single isomer, unassigned) [Example 409, N-((S)-2-((2R,3R,6S)-2-(3-Chlorophenyl)-3-(4-chlorophenyl)-5-oxo-6-(sulfamoylmethyl)morpholino)-2-cyclopropylethyl)-N-(2-fluorophenyl)cyclopropanesulfonamide or N-((S)-2-((2S,3R,6S)-2-(3-chlorophenyl)-3-(4-chlorophenyl)-5-oxo-6-(sulfamoylmethyl)morpholino)-2-cyclopropylethyl)-N-(2-fluorophenyl)cyclopropanesulfonamide], the IC50 was < 1 nM.
With CC[C@@H](CS(=O)(=O)N1CCC[C@H]1C)N1C(=O)[C@@H](CC(=O)O)O[C@H](c2cccc(Cl)c2)[C@H]1c1ccc(Cl)cc1 (single isomer, unassigned) [Example 211, 2-((2R,5R,6R)-6-(3-chlorophenyl)-5-(4-chlorophenyl)-4-((S)-1-(((R)-2-methylpyrrolidin-1-yl)sulfonyl)butan-2-yl)-3-oxomorpholin-2-yl)acetic acid or 2-((2S,5R,6R)-6-(3-chlorophenyl)-5-(4-chlorophenyl)-4-((S)-1-(((R)-2-methylpyrrolidin-1-yl)sulfonyl)butan-2-yl)-3-oxomorpholin-2-yl)acetic acid] the IC50 was 4 nM.
In the case of CC(C)[C@@H](CN(c1ccccc1F)S(=O)(=O)C(C)(C)C)N1C(=O)[C@@H](CC(=O)O)O[C@H](c2cccc(Cl)c2)[C@H]1c1ccc(Cl)cc1 (single isomer, unassigned) [Example 201, 2-((2R,5R,6R)-6-(3-chlorophenyl)-5-(4-chlorophenyl)-4-((S)-1-(N-(2-fluorophenyl)-2-methylpropan-2-ylsulfonamido)-3-methylbutan-2-yl)-3-oxomorpholin-2-yl)acetic acid or 2-((2S,5R,6R)-6-(3-chlorophenyl)-5-(4-chlorophenyl)-4-((S)-1-(N-(2-fluorophenyl)-2-methylpropan-2-ylsulfonamido)-3-methylbutan-2-yl)-3-oxomorpholin-2-yl)acetic acid], the IC50 is reported as 2 nM.
Work on CNC(=O)C[C@H]1O[C@H](c2cccc(Cl)c2)[C@@H](c2ccc(Cl)cc2)N([C@H](CN(c2ccccc2F)S(=O)(=O)C2CC2)C2CC2)C1=O (single isomer, unassigned) [Example 365, 2-((2R,5R,6R)-6-(3-Chlorophenyl)-5-(4-chlorophenyl)-4-((S)-1-cyclopropyl-2-(N-(2-fluorophenyl)cyclopropanesulfonamido)ethyl)-3-oxomorpholin-2-yl)-N-methylacetamide or 2-((2S,5R,6R)-6-(3-chlorophenyl)-5-(4-chlorophenyl)-4-((S)-1-cyclopropyl-2-(N-(2-fluorophenyl)cyclopropanesulfonamido)ethyl)-3-oxomorpholin-2-yl)-N-methylacetamide] yielded an IC50 of 2 nM.
CC[C@@H](CS(=O)(=O)C(C)(C)C)N1C(=O)[C@H](CCO)O[C@H](c2cccc(Cl)c2)[C@H]1c1ccc(Cl)cc1 [Example 151, (2S,5R,6R)-4-((S)-1-(tert-butylsulfonyl)butan-2-yl)-6-(3-chlorophenyl)-5-(4-chlorophenyl)-2-(2-hydroxyethyl)morpholin-3-one] gave an IC50 of 22 nM.
CC[C@@H](CS(=O)(=O)c1ccccn1)N1C(=O)[C@@H](CC(=O)O)O[C@H](c2cccc(Cl)c2)[C@H]1c1ccc(Cl)cc1 (single isomer, unassigned) [Example 203, 2-((2R,5R,6R)-6-(3-chlorophenyl)-5-(4-chlorophenyl)-3-oxo-4-((S)-1-(pyridin-2-ylsulfonyl)butan-2-yl)morpholin-2-yl)acetic acid or 2-((2S,5R,6R)-6-(3-chlorophenyl)-5-(4-chlorophenyl)-3-oxo-4-((S)-1-(pyridin-2-ylsulfonyl)butan-2-yl)morpholin-2-yl)acetic acid] showed an IC50 of 20 nM.
O=C(C[C@H]1O[C@H](c2cccc(Cl)c2)[C@@H](c2ccc(Cl)cc2)N([C@H](CN(c2ccccc2F)S(=O)(=O)C2CC2)C2CC2)C1=O)Nc1ccccn1 (single isomer, unassigned) [Example 368, 2-((2R,5R,6R)-6-(3-Chlorophenyl)-5-(4-chlorophenyl)-4-((S)-1-cyclopropyl-2-(N-(2-fluorophenyl)cyclopropanesulfonamido)ethyl)-3-oxomorpholin-2-yl)-N-(pyridin-2-yl)acetamide or 2-((2S,5R,6R)-6-(3-chlorophenyl)-5-(4-chlorophenyl)-4-((S)-1-cyclopropyl-2-(N-(2-fluorophenyl)cyclopropanesulfonamido)ethyl)-3-oxomorpholin-2-yl)-N-(pyridin-2-yl)acetamide] was tested, and the IC50 was < 1 nM.
